{"source": "patent US7374875B2", "about": "“Peptides having affinity for the gp120 viral protein and use thereof” (priority 2001, dated 2008)", "tested_on": "PHA-P-activated PBMCs", "assay": "Toxicity test, viability of PHA-P-activated PBMCs", "type": "cell-based, human", "conditions": "at the doses tested", "description": "The PBMCs are separated from the other represented elements of the blood by ficoll (MSL 2000, Eurobio) gradient centrifiguation: 30 ml of blood, from a healthy donor, diluted by a third are deposited onto a 20 ml ficoll cushion. After centrifugation for 20 min at 850 g, the ring of PBMCs is removed and then washed twice with RPMI 1640, after centrifugation at 750 g for 10 min and at 400 g for 5 min. The PBMCs are then activated for 48 h with 1 μg/ml of phytohaemagglutinin-P (PHA-P; Difco Laboratories). The PBMCs are cultured at +37° C., in an atmosphere saturated with humidity, under 5% CO2. At the end of the 48 hours of mitogenic activation, they are cultured in medium B. Throughout the culturing, the culture supernatants are sampled, and the culture media are renewed every three or four days. At each renewal of the culture media, the cell viability is evaluated by microscopic observation.\nIn all the experiments, the effects of the new molecules were compared to those of AZT. […] CD4 mimetic toxicity tests were also carried out on the same cells."}
{"smiles": "Cc1cn([C@H]2C[C@H](N=[N+]=[N-])[C@@H](CO)O2)c(=O)[nH]c1=O", "note": "[AZT]", "values": [{"measurement": "viability of the PHA-P-activated PBMCs (in words)", "value": "none of the compounds, AZT, SAH-CD4 or anti-CD4 mimetics, decreased the viability"}]}
